Source: patent publication US9891212B2, “Screening method, a kit, a method of treatment and a compound for use in a method of treatment” (ATROGI AB, priority 2013, dated 2018)

Key:
β3-KO mice [1] = assay: blood glucose over time (glucose tolerance); type: in vivo; settings: 1 mg per kg i.p., FIG. 15
Protocol: FIG. 15 is a graph showing variation over time of blood glucose (in mM) in β3-KO mice after ip injection of either saline or BRL 37344 (1 mg per kg). P<0.01 for the effect of BRL 37344 with two-way ANOVA.

GLUT4 = GLUT4 translocation to the plasma membrane in L6 cells (immunofluorescence); type: cell-based; settings: 2 h stimulation, FIGS. 12 and 13
Protocol: L6 cells were grown in 8-well culture chamber slides (BD Biosciences, Franklin Lakes, BJ), serum starved overnight and stimulated with insulin, isoproterenol or BRL 37344 for 2 h. Cells were fixed for 5 min with 4% formaldehyde in PBS, quenched with 50 mM glycine in PBS for 10 min, blocked with 5% BSA in PBS and incubated with primary antibodies (diluted in 1.5% BSA in PBS) overnight at 4° C. As primary antibody anti GLUT4 binding to extracellular parts of GLUT4 (Santa Cruz Biotechnology, sc-1606, dilution 1:125) was used. Cells were then washed with PBS and incubated with Alexa Fluor® 488-conjugated goat anti-rabbit IgG (1:500 dilution, 1.5% BSA in PBS) for 1 h. Slides were mounted with ProLong® Gold antifade reagent (Invitrogen) and fluorescence micrographs were obtained (FIG. 12).

L6 skeletal muscle cells = assay: cAMP levels in L6 skeletal muscle cells (alpha-screen cAMP kit); type: cell-based
Protocol: L6 myocytes were obtained from ATCC and grown in Dulbecco's Modified Eagle's Medium (DMEM) containing 4.5 g/L glucose supplemented with 10% fetal bovine serum (FBS), 2 mM L-Glutamine, 50 U/ml penicillin, 50 μg/ml streptomycin and 10 mM HEPES. Cells were plated in 12- or 96-well plates and after reaching confluence differentiation was induces by differentiation media containing 2% FBS.
L6-cells were differentiated in 96-well plates and after 7 days of differentiation cells serum-starved and treated with drugs in stimulation buffer (HBSS supplemented with 1% BSA and 5 mM HEPES, pH 7.4). To end the reaction cells were harvested in ice-cold lysis buffer (0.3% Tween-20, 5 mM Hepes, 1% BSA and 1 mM IBMX, pH 7.4). Levels of cAMP were detected by an alpha-screen cAMP kit (6760625R from Perkin Elmer) according to the manufactures instruction.
The cAMP was measured in L6-myotubes after 2 h stimulation. The results (FIG. 3) indicate that BRL 37344 cannot be considered a general beta2-adrenergic receptor agonist (or beta1-adrenergic receptor) stimulating cAMP in skeletal muscle cells.

L6-myotubes [2] = assay: western blot for detection of phospho-CREB in L6-myotubes; type: cell-based; settings: 10^-5 M, 10 to 120 min, FIGS. 5 and 6
Protocol: L6-myotubes were harvested and subjected to western blot for detection of phospho-CREB. For measuring protein phosphorylation of a target downstream cAMP cells were treated as indicated and harvested in pre-warmed SDS sample buffer containing 50 mM dithiothreitol, sonicated and boiled for 5 min. Proteins were separated on a 12% polyacrylamide gel for 3 h at 80 V. The proteins were transferred onto Hypbond-P PVDF membrane (GE Healthcare) which was blocked in milk for 1 h and probed with primary antibodies. All antibodies were purchased from Cell Signaling and diluted 1:1000: Primary antibodies were detected using a secondary antibody (horseradish peroxidase-linked anti-rabbit IgG, #7074) diluted 1:2000 and enhanced chemiluminescence (ECL plus, GE Healthcare). Photos were taken in a CCD camera (Fuji Las 1000) and quantification performed in software ImageJ.
Lanes 1 and 7=basal, 2-6=isoprenaline treatment for 10, 15, 30, 60 and 120 min, 8-12=BRL 37344 treatment for 10, 15, 30, 60 and 120 min. […] Quantification of n=3 blots (FIG. 6).

L6-myotubes [3] = assay: 3H-2-deoxy-glucose uptake in L6-myotubes; type: cell-based; settings: for glucose uptake, isoprenaline versus BRL 37344: 2 h stimulation with 10^-5 M, n=7, FIG. 9
Protocol: Glucose uptake was measured in L6-myotubes grown in 12-well plates using ^3H-2-dexoy-glucose as previously described (Nevzorova et al. 2002) with minor modifications. L6-cells were differentiated for 7-8 days before the experiment, serum-starved over night in media containing 0.5% fatty-acid free BSA and stimulated with BRL 373 44 or Isoprenaline totally 2 h, unless otherwise stated. SQ 22 536 or ICI 118 551 were added 30 min before stimulation. 25 min before the end of the experiment, cells were washed twice in warm PBS and kept in glucose-free DMEM together with the different drugs for 10 min before 50 nM ^3H-2-deoxy-glucose was added for additional 6 minutes. The reaction was terminated by washing the cells in ice-cold PBS three times. Cells were lysed in 0.2 NaOH for 1 h in 60° C. and the radioactivity detected by liquid scintillation (scintillation buffer Emulsifier Safe, Perking Elmer and analysis is a Tri-Carb® 2800TR from Perkin Elmer).

β3-KO mice [4] = assay: in vivo 3H-2-deoxy-glucose uptake in soleus and gastrocnemius muscle; settings: 1 mg/kg i.p., CPM per gram tissue divided by CPM per gram blood, FIG. 14
Protocol: β3-KO mice on FVB background, 12-16 weeks old, were anaesthetised with pentobarbital (67 mg/kg). BRL 37344 (1 mg/kg) or saline was injected i.p. about 10 min after induction of anaesthesia. After 20 min ^3H-2-deoxy-glucose (16 nM/130 μCi per kg of mouse) diluted in 100 μl saline was injected. Mice were killed 1 h after injection of 2-deoxy-glucose. Blood sample was taken from heart and soleus and gastrocnemius were dissected out. Tissues were weighed and dissolved in 0.5 M NaOH in 60° C. Radioactivity was detected as described above. The results are expressed as CPM per gram tissue divided by CPM per gram blood.

SMILES | maximum blood glucose compared to control mice (β3-KO mice [1]) | GLUT4 translocation to the plasma membrane (GLUT4) | cAMP levels at different concentrations (L6 skeletal muscle cells; L6-myotubes, 2 h stimulation, FIG. 3) | cAMP at time points examined (L6 skeletal muscle cells; L6 skeletal muscle cells, 0 min to 25 min of contact, FIG. 2) | cAMP over basal (L6 skeletal muscle cells; L6 skeletal muscle cells, FIG. 1) | phospho-CREB (downstream target of cAMP) (L6-myotubes [2]) | glucose uptake, isoprenaline versus BRL 37344 (L6-myotubes [3]) | BRL 37344 stimulated glucose uptake with beta2 inhibition (L6-myotubes [3]; BRL 37344 10 μM, 2 h, in presence of 10 μM ICI 118551, FIG. 11) | glucose uptake at different concentrations (L6-myotubes [3]; L6-myotubes, 2 h stimulation, n=7, FIG. 8) | glucose uptake at different time points (L6-myotubes [3]; L6-myotubes, BRL 37344 10 μM, FIG. 7) | BRL 37344 stimulated glucose uptake with inhibition of adenylyl cyclase (L6-myotubes [3]; SQ 22536 500 μM added 30 min before stimulation, FIG. 10) | glucose uptake in both skeletal muscles relative to control mice (β3-KO mice [4])
C[C@H](Cc1ccc(OCC(=O)O)cc1)NC[C@H](O)c1cccc(Cl)c1 (relative stereo) [BRL 37344, (±)-(R*,R*)-[4-[2-[[2-(3-chlorophenyl)-2-hydroxyethyl]amino]propyl]phenoxy]acetic acid] | substantially reduced | increase of GLUT4 translocation to the plasma membrane | no or little impact on cAMP levels | At no time point examined did BRL 37344 increase cAMP | did not significantly increase cAMP over basal | not affected | no significant difference between the responses | fully inhibits | increases glucose uptake | increases during time | does not decrease | 2-3 times higher
CC(C)NCC(O)c1ccc(O)c(O)c1 (racemic) [isoprenaline, (RS)-4-[1-hydroxy-2-(isopropylamino)ethyl]benzene-1,2-diol] |  |  |  |  |  |  | no significant difference between the responses |  |  |  |  | 
